Test results as given in patent US6352722B1, “Derivatized carbohydrates, compositions comprised thereof and methods of use thereof” (Quadrant Holdings Cambridge Limited, priority 1997, dated 2002).

Test: Glass transition temperature (Tg) of derivatized carbohydrates, by DSC
Format: physicochemical
Details: derivatized carbohydrate alone, Tables 1-4
Excerpt: The reaction product can be characterized structurally by methods known in the art, including, but not limited to, nuclear magnetic resonance spectroscopy (NMR) and its material science properties characterized by differential scanning calorimetry (DSC). The characteristic melting points and Tgs (glass transition temperatures) for the derivatized carbohydrates can also be determined by DSC and other methods known in the art.
The carbohydrate derivatives were routinely synthesized by standard esterification of the carbohydrate with the chloride of the desired hydrocarbon side chain under anhydrous conditions and the resulting derivatives purified by standard techniques of solvent extraction and re-crystallization. For example, trehalose octa-3,3-dimethylbutyrate was synthesized by reacting 3,3,-dimethylbutyroyl chloride with trehalose in anhydrous pyridine, followed by extraction with ether, hydrochloric acid, potassium carbonate solution and water and finally re-crystallized twice from alcohol to yield colorless, needle-like crystals (˜80% yield) of m.pt 138-140° C., αD 112°. Trehalose hexa-3,3-dimethylbutyrate (THEX) can be prepared by protecting the 6,6′-hydroxy group of trehalose with a bulky group such as trityl or t-butyldiphenylsilyl, for example by heating trehalose and trityl chloride in pyridine. The 6,6′-ditrityltrehalose can be acylated with 3,3-dimethylbutyroyl chloride in pyridine to give 6,6′-ditritylhexa-3,3-dimethylbutyryltrehalose. The trityl group can be removed by strong acid, for example hydrogen bromide in acetic acid, to give THEX. TACT can be prepared by acylating THEX with acetic anhydride in pyridine. Suitable work-up yields the HDC in crystalline form. The physical characteristics, melting points and glass transition temperatures (Tg, ° C.) of selected carbohydrate derivatives are shown in Tables 1-5.

| Compound | Tg(° C.) |
| --- | --- |
| CC(C)C(=O)OCC1O[C@H](OCC2O[C@@H](O[C@]3(COC(=O)C(C)C)O[C@H](COC(=O)C(C)C)[C@@H](OC(=O)C(C)C)[C@H]3OC(=O)C(C)C)C(OC(=O)C(C)C)[C@@H](OC(=O)C(C)C)[C@@H]2OC(=O)C(C)C)C(OC(=O)C(C)C)[C@@H](OC(=O)C(C)C)[C@H]1OC(=O)C(C)C (some centres unmarked) [Raffinose undeca-isobutyrate] | 15 °C |
| CC(=O)OCC1OC(OC2OC(COC(C)=O)C(OC(=O)C(C)C)C(OC(C)=O)C2OC(C)=O)C(OC(C)=O)C(OC(C)=O)C1OC(=O)C(C)C (centres unmarked) [Trehalose 4,4′-diisobutyrate hexaacetate] | 41 °C |
| CCC(=O)OC1C(COC(C)=O)OC(OC2OC(COC(C)=O)C(OC(=O)CC)C(OC(C)=O)C2OC(C)=O)C(OC(C)=O)C1OC(C)=O (centres unmarked) [Trehalose 4,4′-dipropionate hexaactetate] | 42 °C |
| CC(=O)OC1C(COC(=O)C(C)(C)C)OC(OC2OC(COC(=O)C(C)(C)C)C(OC(C)=O)C(OC(C)=O)C2OC(C)=O)C(OC(C)=O)C1OC(C)=O (centres unmarked) [Trehalose 6,6′ dipivalate hexaacetate] | 56 °C |
| CCC(CC)C(=O)OC[C@H]1O[C@H](O[C@H]2O[C@H](COC(=O)C(CC)CC)[C@@H](OC(C)=O)[C@H](OC(C)=O)[C@H]2OC(C)=O)[C@H](OC(C)=O)[C@@H](OC(C)=O)[C@@H]1OC(C)=O [Trehalose 6,6′-di-(2-ethylbutyrate) hexaacetate] | 30 °C |
| CC(=O)O[C@@H]1[C@@H](OC(C)=O)[C@@H](O[C@H]2O[C@H](COC(=O)CC(C)(C)C)[C@@H](OC(C)=O)[C@H](OC(C)=O)[C@H]2OC(C)=O)O[C@H](COC(=O)CC(C)(C)C)[C@H]1OC(C)=O [Trehalose 6,6′-di-(3,3-dimethylbutyrate) hexaacetate] | 50 °C |
| CC(=O)OC1C(COC(=O)C(C)C)OC(OC2OC(COC(=O)C(C)C)C(OC(C)=O)C(OC(C)=O)C2OC(C)=O)C(OC(C)=O)C1OC(C)=O (centres unmarked) [Trehalose 6,6′-diisobutyrate hexaacetate] | 42 °C |
| CCC(=O)OC[C@H]1O[C@H](O[C@H]2O[C@H](COC(=O)CC)[C@@H](OC(C)=O)[C@H](OC(C)=O)[C@H]2OC(C)=O)[C@H](OC(C)=O)[C@@H](OC(C)=O)[C@@H]1OC(C)=O [Trehalose 6,6′-dipropionate hexaactetate] | 43 °C |
| CCC(C)(C)C(=O)OC[C@H]1O[C@H](O[C@H]2O[C@H](COC(=O)C(C)(C)CC)[C@@H](OC(C)=O)[C@H](OC(C)=O)[C@H]2OC(C)=O)[C@H](OC(C)=O)[C@@H](OC(C)=O)[C@@H]1OC(C)=O [Trehalose 6,6′di-(2,2-dimethylbutyrate) hexaacetate] | 47 °C |
| CCCC(=O)OC[C@H]1O[C@H](O[C@H]2O[C@H](COC(=O)CCC)[C@@H](OC(=O)CCC)[C@H](OC(=O)CCC)[C@H]2OC(=O)CCC)[C@H](OC(=O)CCC)[C@@H](OC(=O)CCC)[C@@H]1OC(=O)CCC [Trehalose octabutyrate, reference compound] | syrup |
| CC(C)C(=O)OCC1O[C@@H](O[C@H]2OC(COC(=O)C(C)C)[C@@H](OC(=O)C(C)C)[C@H](OC(=O)C(C)C)C2OC(=O)C(C)C)C(OC(=O)C(C)C)C(OC(=O)C(C)C)[C@H]1OC(=O)C(C)C (some centres unmarked) [Trehalose octaisobutyrate] | 7 °C |
| CCC(=O)OCC1O[C@@H](O[C@H]2OC(COC(=O)CC)[C@@H](OC(=O)CC)[C@H](OC(=O)CC)C2OC(=O)CC)C(OC(=O)CC)C(OC(=O)CC)[C@H]1OC(=O)CC (some centres unmarked) [Trehalose octapropionate, reference compound] | 3 °C |
| CCCCC(=O)OCC1OC(OC2OC(COC(=O)CCCC)C(OC(=O)CCCC)C(OC(=O)CCCC)C2OC(=O)CCCC)C(OC(=O)CCCC)C(OC(=O)CCCC)C1OC(=O)CCCC (centres unmarked) [Trehalose octavalerate, reference compound] | syrup |
| CC(=O)OC[C@H]1O[C@@H](O[C@H]2[C@H](OC(C)=O)[C@@H](OC(C)=O)C(OC(C)=O)O[C@@H]2COC(C)=O)[C@H](OC(C)=O)[C@@H](OC(C)=O)[C@H]1OC(C)=O (stereo partly drawn) [α, β-Lactose octaacetate, reference compound] | 67 °C |
| CC(=O)O[C@@H]1[C@@H](OC(=O)CC(C)(C)C)[C@@H](OC(=O)CC(C)(C)C)O[C@H](COC(=O)CC(C)(C)C)[C@H]1O[C@@H]1O[C@H](COC(=O)CC(C)(C)C)[C@H](OC(=O)CC(C)(C)C)[C@H](OC(=O)CC(C)(C)C)[C@H]1OC(=O)CC(C)(C)C [α-Lactose 3-acetyl-hepta-3,3-dimethylbutyrate] | 48 °C |
| CC(C)(C)CC(=O)OC[C@H]1O[C@@H](O[C@H]2[C@H](OC(=O)CC(C)(C)C)[C@@H](OC(=O)CC(C)(C)C)[C@@H](OC(=O)CC(C)(C)C)O[C@@H]2COC(=O)CC(C)(C)C)[C@H](OC(=O)CC(C)(C)C)[C@@H](OC(=O)CC(C)(C)C)[C@H]1OC(=O)CC(C)(C)C [α-Lactose octa-3,3-dimethyl-butyrate] | 53 °C |
| CC(=O)OC[C@H]1O[C@@H](O[C@H]2[C@H](OC(C)=O)[C@@H](OC(C)=O)[C@@H](OC(C)=O)O[C@@H]2COC(C)=O)[C@H](OC(C)=O)[C@@H](OC(C)=O)[C@H]1OC(C)=O [α-Lactose octaacetate, reference compound] | 70 °C |
| CCO[C@@H]1O[C@H](COC(C)=O)[C@@H](O[C@@H]2O[C@H](COC(C)=O)[C@@H](OC(C)=O)[C@H](OC(C)=O)[C@H]2OC(C)=O)[C@H](OC(C)=O)[C@H]1OC(C)=O [β-Cellobiose ethyl heptaacetate] | 52 °C |
| CO[C@@H]1O[C@H](COC(C)=O)[C@@H](O[C@@H]2O[C@H](COC(C)=O)[C@@H](OC(C)=O)[C@H](OC(C)=O)[C@H]2OC(C)=O)[C@H](OC(C)=O)[C@H]1OC(C)=O [β-Cellobiose methyl heptaacetate] | 77 °C |
| CCC(=O)OC[C@H]1O[C@@H](O[C@H]2[C@H](OC(=O)CC)[C@@H](OC(=O)CC)[C@H](OC(=O)CC)O[C@@H]2COC(=O)CC)[C@H](OC(=O)CC)[C@@H](OC(=O)CC)[C@@H]1OC(=O)CC [β-Cellobiose octapropionate, reference compound] | 15 °C |
| CC(=O)OC[C@H]1O[C@@H](O[C@H]2[C@H](OC(C)=O)[C@@H](OC(C)=O)[C@H](OC(=O)C(C)C)O[C@@H]2COC(C)=O)[C@H](OC(C)=O)[C@@H](OC(C)=O)[C@H]1OC(C)=O [β-Lactose isobutyrate heptaacetate] | 60 °C |
| CC(=O)OC[C@H]1O[C@@H](O[C@H]2[C@H](OC(C)=O)[C@@H](OC(C)=O)[C@H](OC(C)=O)O[C@@H]2COC(C)=O)[C@H](OC(C)=O)[C@@H](OC(C)=O)[C@H]1OC(C)=O [β-Lactose octaacetate, reference compound] | 63 °C |
| CC(C)(C)C(=O)OC[C@H]1O[C@@H](O[C@H]2[C@H](OC(=O)C(C)(C)C)[C@@H](OC(=O)C(C)(C)C)[C@H](OC(=O)C(C)(C)C)O[C@@H]2COC(=O)C(C)(C)C)[C@H](OC(=O)C(C)(C)C)[C@@H](OC(=O)C(C)(C)C)[C@H]1OC(=O)C(C)(C)C [β-Lactose octapivalate] | 88 °C |
| Trehalose heptapivalate | 73 °C |
| Trehalose pentapivalate | 81 °C |
| Trehalose tetrapivalate | 96 °C |
